Laboratory results taken from patent US20260008784A1 (VASTHERA CO., LTD., priority 2022, published 2026).

Key:
[1] = in vitro; conditions: human
Protocol: (§2) For cytotoxicity analysis, human aortic endothelial cells (HAEC) and smooth muscle cells (HASMC) were seeded in a 96-well culture plate at density of 4000 cells/well in a final volume of 100 μL. Cells were cultured for 24 h and serum-starved for an additional 18 h. Test compounds were serially diluted with EBM-2 culture medium, added to the plate at 100 μL/well, and further incubated for 24 h. The number of viable cells was measured using the WST-1 cell viability assay kit (Roche Diagnostics, USA). Cell number was expressed as absorbance values at 450 nm after subtracting the turbidity value at 600 nm. The absorbance values from three replicate wells were averaged.
(§3) After treatment with ascending concentrations of each compound, the concentration of test compound corresponding to 50% cell viability (CC50) was measured.

[2] = in vitro; conditions: human; remark: listed apart in the source
Protocol: as §2, §3

[3] = tested on: PDGF-induced tyrosine phosphorylation and PLC-γ1 phosphorylation in PASMC; assay: Immunoblot of PDGF-mediated signaling in PrxII knock-down PASMC; type: cell-based, human; conditions: PASMCs, PDGF stimulation, FIG. 3
Protocol: (§1) Cells were quickly washed in ice-cold phosphate-buffered saline (PBS) and lysed in extraction buffer containing 20 mM Hepes (pH 7.0), 1% Triton X-100, 150 mM NaCl, 10% glycerol, 1 mM EDTA, 2 mM EGTA, and 1 mM DTT, 5 mM Na3VO4, 5 mM NaF, 1 mM AEBSF, aprotinin (5 μg/mL), and leupeptin (5 μg/mL). After cen-trifugation at 12,000×g, the clarified cell extracts were used for immunoblotting. For re-blotting, the immunoblots were retrieved in a solution of 67 mM Tris (pH 6.7), 2% SDS, and 100 mM 2-mercaptoethanol at 60° C. for 30 min to remove antibodies and rinsed three times with a Tris-buffered saline (TBS) solution containing 1% Triton X-100. The retrieved membranes were subjected to new immunoblotting.
In human aortic smooth muscle cell (HASMC) and human pulmonary artery smooth muscle cell (PASMC) in which PrxII was knocked out by transfecting the PrxII siRNA, the ability of test compounds to replace the cellular function of PrxII was evaluated. That is, the efficacy of the new compounds was verified in terms of signaling pathways induced by PDGF that regulates the growth and migration of vascular smooth muscle cells in the aorta and pulmonary artery. Activation of PDGF-induced signaling pathway was analyzed by an immunoblot method using an antibody that specifically recognizes phosphorylation of Tyr 857, which is a major phosphorylation site on PDGF receptor (PDGFRβ).

[4] = tested on: VEGF-induced tyrosine phosphorylation and ERK2 phosphorylation in PAEC; assay: Immunoblot of VEGF-mediated signaling in PrxII knock-down PAEC; type: cell-based, human; conditions: PAECs, VEGF stimulation, FIG. 6
Protocol: as §1
In human aortic endothelial cell (HAEC) and human pulmonary artery endothelial cell (PAEC) in which PrxII was knocked out by transfecting the PrxII siRNA, the ability of test compounds to replace the cellular function of PrxII was evaluated. That is, the efficacy of the new compounds was verified in terms of signaling pathways induced by VEGF that regulates the growth and migration of vascular endothelial cells in the aorta and pulmonary artery. Activation of VEGF-induced signaling pathway was analyzed by an immunoblot method using an antibody that specifically recognizes phosphorylation of Tyr 1175, which is a major phosphorylation site on VEGF receptor-2 (VEGFR2).

CN1C(=O)C2(C)SSCC1C(=O)N2C (stereo not shown) [Compound 1, 1,6,8-trimethyl-2,3-dithia-6,8-diazabicyclo[3.2.2]nonane-7,9-dione]
CC50 [1]: > 500 µM | CC50 [2]: > 500 µM

O=C1C2CSSC3(COCCN13)C(=O)N2Cc1ccccc1 (stereo not shown) [Compound 8, 12-benzyltetrahydro-5H,10H-4,10a-(epiminomethano)[1,4]oxazino[3,4-c][1,2,4]dithia zepine-5,11-dione]
Effect on total tyrosine phosphorylation and phosphorylation of signaling proteins downstream of PDGFRβ [3]: significantly inhibits the protein phosphorylation | Effect on total tyrosine phosphorylation and phosphorylation of signaling proteins downstream of VEGFR2 [4]: significantly inhibits the protein phosphorylation
